Toxic doses and inconclusive results are not listed. The calls were made as follows: active = survival T/C of 150% or more; inactive = T/C below 125% in these data.
Tested on: CD2F1 mice, L1210 leukemia ip, survival T/C
Experiment: NCI In Vivo Anticancer Drug Screen. Data for tumor model L1210 Leukemia (intraperitoneal) in CD2F1 (CDF1) mice
Conditions: higher = longer survival
Outline: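 Activity against a transplanted murine tumor was judged by comparing the compound group with a vehicle group. The outcome in the treated animals was divided by that in the controls.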

[1] = endpoint: mean survival time, dose: 100.0 mg/kg/injection, schedule: Q01DX009 (ip), vehicle: saline with Tween-80
[2] = endpoint: mean survival time, dose: 200.0 mg/kg/injection, schedule: Q01DX009 (ip), vehicle: saline with Tween-80
[3] = endpoint: mean survival time, dose: 400.0 mg/kg/injection, schedule: Q01DX009 (ip), vehicle: saline with Tween-80
[4] = endpoint: mean survival time, dose: 100.0 mg/kg/injection, schedule: Q01DX009 (ip), vehicle: saline
[5] = endpoint: mean survival time, dose: 200.0 mg/kg/injection, schedule: Q01DX009 (ip), vehicle: saline
[6] = endpoint: mean survival time, dose: 200.0 mg/kg/injection, schedule: Q04DX003 (ip), vehicle: saline with Tween-80
[7] = endpoint: mean survival time, dose: 400.0 mg/kg/injection, schedule: Q04DX003 (ip), vehicle: saline with Tween-80
[8] = endpoint: mean survival time, dose: 100.0 mg/kg/injection, schedule: Q01DX001 (ip), vehicle: saline with Tween-80
[9] = endpoint: mean survival time, dose: 200.0 mg/kg/injection, schedule: Q01DX001 (ip), vehicle: saline with Tween-80
[10] = endpoint: mean survival time, dose: 400.0 mg/kg/injection, schedule: Q01DX001 (ip), vehicle: saline with Tween-80
[11] = endpoint: mean survival time, dose: 100.0 mg/kg/injection, schedule: Q01DX001 (ip), vehicle: saline
[12] = endpoint: mean survival time, dose: 200.0 mg/kg/injection, schedule: Q01DX001 (ip), vehicle: saline
[13] = endpoint: mean survival time, dose: 400.0 mg/kg/injection, schedule: Q01DX001 (ip), vehicle: saline
[14] = endpoint: mean survival time, dose: 100.0 mg/kg/injection, schedule: Q04DX003 (ip), vehicle: saline with Tween-80

Measured: T/C

COC(=O)C(C(=O)OC)=C(C(=O)OC)C(=O)OC
inactive: [1] 96 % of control | [2] 96 % of control | [3] 94 % of control

Oc1ccccc1/C=N\Nc1ccccc1
inactive: [4] 98 % of control | [5] 98 % of control | endpoint: mean survival time, dose: 400.0 mg/kg/injection, schedule: Q01DX009 (ip), vehicle: saline 102 % of control

O=C(CC(CC(=O)C(c1ccccc1)c1ccccc1)c1ccccc1)C(c1ccccc1)c1ccccc1
inactive: endpoint: mean survival time, dose: 12.5 mg/kg/injection, schedule: Q04DX002 (ip), vehicle: saline with Tween-80 93 % of control | endpoint: mean survival time, dose: 25.0 mg/kg/injection, schedule: Q04DX002 (ip), vehicle: saline with Tween-80 90 % of control | [6] 86 % of control | [7] 86 % of control

CNC(=O)c1ccc(C(=O)NC)cc1
inactive: [1] 86 % of control | [2] 94 % of control | [3] 96 % of control

CCCC/C=C/C1(O)CCCCC1
inactive: endpoint: mean survival time, dose: 50.0 mg/kg/injection, schedule: Q01DX009 (ip), vehicle: saline with Tween-80 98 % of control | [1] 103 % of control | [2] 103 % of control

CC(=O)N(C)c1ccc(S(=O)(=O)Cl)cc1
inactive: [8] 100 % of control | [9] 105 % of control | [10] 93 % of control

O=c1[nH]c2ccc(Br)cc2c2ccccc12
inactive: [11] 90 % of control | [12] 94 % of control | [13] 100 % of control

COc1cccc2c1C(=O)c1c(O)c3c(c(O)c1C2=O)C[C@@](O)(C(O)CO)C[C@@H]3OC1CC(N(Cc2ccccc2)Cc2ccccc2)C(O)C(C)O1 (stereo not given in full)
inactive: endpoint: median survival time, dose: 6.25 mg/kg/injection, schedule: Q01DX009 (ip), vehicle: water 122 % of control

Cc1ccc(S(=O)(=O)NC(=O)c2ccccc2)cc1
inactive: [1] 95 % of control | [14] 98 % of control | [2] 98 % of control | [6] 102 % of control | [3] 95 % of control | [7] 101 % of control

NNC(=O)c1ccc(O)cc1
inactive: [8] 90 % of control | [9] 94 % of control | [10] 96 % of control

NC(N)=NC(N)=Nc1cnccn1
inactive: endpoint: mean survival time, dose: 25.0 mg/kg/injection, schedule: Q01DX009 (ip), vehicle: saline sonified 91 % of control | endpoint: mean survival time, dose: 25.0 mg/kg/injection, schedule: Q04DX003 (ip), vehicle: saline 104 % of control | endpoint: mean survival time, dose: 50.0 mg/kg/injection, schedule: Q01DX009 (ip), vehicle: saline sonified 97 % of control | endpoint: mean survival time, dose: 50.0 mg/kg/injection, schedule: Q04DX003 (ip), vehicle: saline 98 % of control | endpoint: mean survival time, dose: 75.0 mg/kg/injection, schedule: Q01DX001 (ip), vehicle: saline 95 % of control | endpoint: mean survival time, dose: 100.0 mg/kg/injection, schedule: Q01DX009 (ip), vehicle: saline sonified 95 % of control | endpoint: mean survival time, dose: 100.0 mg/kg/injection, schedule: Q04DX003 (ip), vehicle: saline 104 % of control | endpoint: mean survival time, dose: 150.0 mg/kg/injection, schedule: Q01DX001 (ip), vehicle: saline 93 % of control

CCS(=O)(=O)C1(S(=O)(=O)CC)CCCCC1
inactive: [11] 102 % of control | [12] 102 % of control | [13] 102 % of control

CCOC(=O)C(c1ccccc1)c1ccccc1
inactive: [14] 102 % of control | [6] 111 % of control | [7] 103 % of control

CC1=C(C2=C(C)C([N+](=O)[O-])(C(C)(C)C)C=C(C(C)(C)C)C2=O)C(=O)C(C(C)(C)C)=CC1([N+](=O)[O-])C(C)(C)C (stereo not given)
inactive: endpoint: mean survival time, dose: 100.0 mg/kg/injection, schedule: Q04DX002 (ip), vehicle: saline with Tween-80 90 % of control | endpoint: mean survival time, dose: 200.0 mg/kg/injection, schedule: Q04DX002 (ip), vehicle: saline with Tween-80 94 % of control | endpoint: mean survival time, dose: 400.0 mg/kg/injection, schedule: Q04DX002 (ip), vehicle: saline with Tween-80 90 % of control

N#CC1c2ccccc2C=CN1C(=O)OCC(Cl)(Cl)Cl (stereo not given)
inactive: endpoint: mean survival time, dose: 100.0 mg/kg/injection, schedule: Q04DX003 (ip), vehicle: Klucel (hydroxypropylcellulose) (HPC) 102 % of control | endpoint: mean survival time, dose: 200.0 mg/kg/injection, schedule: Q04DX003 (ip), vehicle: Klucel (hydroxypropylcellulose) (HPC) 102 % of control | endpoint: mean survival time, dose: 400.0 mg/kg/injection, schedule: Q04DX003 (ip), vehicle: Klucel (hydroxypropylcellulose) (HPC) 103 % of control

CN1C2CCC1C(CCl)C(O)C2 (stereo not given)
inactive: endpoint: mean survival time, dose: 50.0 mg/kg/injection, schedule: Q01DX009 (ip), vehicle: saline 97 % of control | [4] 104 % of control | [5] 101 % of control

Reference: PubChem BioAssay AID256 (DTP/NCI, 2004)
